Measured values reported in PMC6409996, “Pharmacodynamics and Pharmacokinetics of a New Type of Compound Lansoprazole Capsule in Gastric Ulcer Rats and Beagle Dogs: Importance of Adjusting Oxidative Stress and Inflammation” (Pharmaceutics, 2019).

How the values were obtained:
[1] = test system: glacial acetic-acid-induced gastric ulcer; assay: Macroscopic gastric ulcer assay in the glacial acetic-acid-induced gastric ulcer model; type: in vivo, rat
Procedure: The gastric ulcer index (UI) was the total area of ulcer. The gastroprotection (%) was calculated and used for macroscopic gastric ulcer assay.

[2] = test system: glacial acetic-acid-induced gastric ulcer; assay: Histopathological observation (H&E) of gastric mucosa, glacial acetic-acid-induced gastric ulcer; type: in vivo, rat; settings: treatment with LSZ compared to the model group
Procedure: Cross-sections with a thickness of 4 µm were then papered for hematoxylin and eosin (H&E) staining. All specimens were assessed under a light microscopy.

VEGF [3] = assay: Immunohistochemistry evaluation of gastric tissue for VEGF; type: in vivo, rat; settings: the LSZ group, p < 0.01
Procedure: (§1) Gastric tissues were post fixed in 4% paraformaldehyde overnight at 4 °C before routine paraffin sections (4 μm) were prepared for immunohistochemical staining. Paraffin-embedded slices of tissues were incubated overnight at 4 °C with primary rabbit anti-VEGF and anti-COX-2 antibody (1:200, Thermo). After rinsing, sections were incubated in biotinylated goat anti-rabbit IgG (1:200, Maixin) at 37 °C for 30 min and were subsequently incubated in streptavidin-peroxidase conjugate (1:200, Maixin) at 37 °C for 30 min. The sections were developed with 3,3′-diaminobenzidine (DAB) in a chromogen solution and counter-stained with hematoxylin. Images were obtained using an Olympus BX-61microscope (Tokyo, Japan).

COX-2 [4] = assay: Immunohistochemistry evaluation of gastric tissue for COX-2; type: in vivo, rat; settings: the LSZ group, p < 0.01
Procedure: as §1

VEGF [5] = assay: Western blotting determination of gastric tissue for VEGF; type: in vivo, rat; settings: LSZ versus model group, p < 0.01
Procedure: (§2) The homogenate was centrifuged at a force of 12,000 g for 30 min at 4 °C and protein qualification was carried out using a BCA kit. The total protein extract (25 μg per lane) was separated on SDS-polyacrylamide gels and transferred onto PVDF membranes. Nonspecific binding sites on the membrane were blocked by PBS containing 0.1% Tween-20 with 5% bovine serum albumin, which was followed by incubation with rabbit polyclonal primary antibodies against VEGF and COX-2 and β-actin overnight at 4 °C. Immunoreactive bands were visualized using the enhanced chemiluminescent kit. Bands were measured using the Quality One analysis software and the density of each band was normalized to β-actin.

COX-2 [6] = assay: Western blotting determination of gastric tissue for COX-2; type: in vivo, rat; settings: LSZ versus model group, p < 0.01
Procedure: as §2

[7] = Stability of lansoprazole in dog plasma (method validation); type: in vitro ADME; settings: n = 3
Description: The method was fully validated in accordance with the US Food and Drug Administration (FDA) guidelines. Specificity, linearity, LLOQ, precision, accuracy, recovery, matrix effect and stability were all experimentally investigated.

[8] = capsules containing enteric-coated granules; cited from earlier work
SOD = assay: Measurement of SOD level in gastric ulcer rats; settings: 2.7 mg/kg, seven consecutive days, mean ± SD, n = 6
H^+-K^+-ATP enzyme = H^+-K^+-ATP enzyme (Rattus norvegicus, UniProt P09626); assay: Measurement of H+-K+-ATP enzyme activity in gastric ulcer rats; settings: 2.7 mg/kg, seven consecutive days, mean ± SD, n = 6
MDA = assay: Measurement of MDA (lipid peroxidation, TBARS) in gastric ulcer rats; settings: 2.7 mg/kg, seven consecutive days, mean ± SD, n = 6
[9] = nominal concentration 10 ng·mL^−1
[10] = nominal concentration 125 ng·mL^−1
[11] = nominal concentration 2000 ng·mL^−1

Sequence of H^+-K^+-ATP enzyme (P09626 whole entry): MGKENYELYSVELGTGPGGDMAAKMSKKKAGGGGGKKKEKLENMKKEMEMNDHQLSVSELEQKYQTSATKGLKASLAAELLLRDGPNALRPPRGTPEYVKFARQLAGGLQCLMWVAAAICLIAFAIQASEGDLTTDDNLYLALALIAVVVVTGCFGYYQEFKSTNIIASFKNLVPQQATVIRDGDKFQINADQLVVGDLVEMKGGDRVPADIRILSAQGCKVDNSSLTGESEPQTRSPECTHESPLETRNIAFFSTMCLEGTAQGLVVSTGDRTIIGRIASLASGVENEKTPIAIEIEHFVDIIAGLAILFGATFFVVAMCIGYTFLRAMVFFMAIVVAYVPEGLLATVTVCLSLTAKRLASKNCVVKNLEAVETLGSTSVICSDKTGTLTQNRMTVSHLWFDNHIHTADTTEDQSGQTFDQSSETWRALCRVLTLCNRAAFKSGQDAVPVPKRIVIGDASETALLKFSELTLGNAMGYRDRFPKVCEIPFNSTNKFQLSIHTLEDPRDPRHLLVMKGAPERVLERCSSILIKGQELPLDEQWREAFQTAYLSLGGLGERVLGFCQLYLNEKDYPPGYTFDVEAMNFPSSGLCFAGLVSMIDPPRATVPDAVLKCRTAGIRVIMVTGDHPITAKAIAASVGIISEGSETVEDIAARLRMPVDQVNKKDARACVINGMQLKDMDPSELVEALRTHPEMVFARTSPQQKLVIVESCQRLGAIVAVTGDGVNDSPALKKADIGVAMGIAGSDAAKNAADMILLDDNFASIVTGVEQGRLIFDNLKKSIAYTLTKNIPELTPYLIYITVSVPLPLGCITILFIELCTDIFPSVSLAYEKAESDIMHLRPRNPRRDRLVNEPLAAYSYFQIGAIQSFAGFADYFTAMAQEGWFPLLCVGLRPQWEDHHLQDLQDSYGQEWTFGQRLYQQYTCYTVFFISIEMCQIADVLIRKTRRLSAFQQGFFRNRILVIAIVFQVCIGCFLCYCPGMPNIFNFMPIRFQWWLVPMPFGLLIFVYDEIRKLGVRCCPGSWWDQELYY
Sequence of H^+-K^+-ATP enzyme (P18598 whole entry partner): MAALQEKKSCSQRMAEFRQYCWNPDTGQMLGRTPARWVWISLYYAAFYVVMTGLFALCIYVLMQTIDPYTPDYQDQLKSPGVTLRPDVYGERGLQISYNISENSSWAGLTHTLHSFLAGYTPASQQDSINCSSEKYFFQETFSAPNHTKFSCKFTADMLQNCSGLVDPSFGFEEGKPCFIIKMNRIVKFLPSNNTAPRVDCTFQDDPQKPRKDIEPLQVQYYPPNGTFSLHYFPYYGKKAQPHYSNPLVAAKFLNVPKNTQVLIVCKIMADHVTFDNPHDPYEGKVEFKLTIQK

Cc1c(OCC(F)(F)F)ccnc1C[S+]([O-])c1nc2ccccc2[nH]1 (stereo not drawn) [LSZ, Lansoprazole]
Gastroprotection (%) ([1]; rats, intragastric, 2.7 mg/kg, seven consecutive days): 29.8% | UI ([1]; rats, intragastric, 2.7 mg/kg, seven consecutive days, UI = total area of ulcer, mean ± SD, n = 6): 28.30 ± 7.29 | Macroscopic gastric lesions ([1]; treatment with LSZ compared to the model group): significantly reduced | Histological evaluation of gastric mucosa (submucosal edema, epithelial cell loss) [2]: protective effect on gastric mucosa | Expression of VEGF (immunohistochemistry) (VEGF [3]): increased expression | Expression of COX-2 (immunohistochemistry) (COX-2 [4]): increased expression | Expression of VEGF protein (Western blot) (VEGF [5]): significantly increase | Expression of COX-2 protein (Western blot) (COX-2 [6]): significantly increase | Stability in dog plasma, 3 Freeze-Thaw Cycles [7, 9]: 9.64 | Stability in dog plasma, 45 Days, −20 °C [7, 9]: 9.11 | Stability in dog plasma, 10 h, 4 °C [7, 9]: 9.35 | Stability in dog plasma, 24 h, Room Temperature [7, 9]: 10.00 | Stability in dog plasma, 3 Freeze-Thaw Cycles [7, 10]: 119.79 | Stability in dog plasma, 45 Days, −20 °C [7, 10]: 123.82 | Stability in dog plasma, 10 h, 4 °C [7, 10]: 124.51 | Stability in dog plasma, 24 h, Room Temperature [7, 10]: 132.80 | Stability in dog plasma, 3 Freeze-Thaw Cycles [7, 11]: 2128.46 | Stability in dog plasma, 45 Days, −20 °C [7, 11]: 1853.17 | Stability in dog plasma, 10 h, 4 °C [7, 11]: 2088.22 | Stability in dog plasma, 24 h, Room Temperature [7, 11]: 2024.38 | Time of peak concentration after oral administration [8]: ≤ 1 ± 2 h | SOD (SOD): 170.12 ± 13.19 μmol*g^−1 Pro | H^+-K^+-ATP enzyme activity (H^+-K^+-ATP enzyme): 7.91 ± 0.76 mmol/g/h | MDA (MDA): 75.32 ± 10.77 μmol*g^−1 Pro
